Consider 11 compounds from patent US5144010A, “Method of producing monoclonal auto-anti-idiotypic antibodies” (The Trustees of Columbia University in the City of New York, priority 1989, dated 1992).

Assay [1] addresses T1, partially purified glucocorticoid receptor (Rattus norvegicus, UniProt P06536).
T1 sequence (P06536 1-795): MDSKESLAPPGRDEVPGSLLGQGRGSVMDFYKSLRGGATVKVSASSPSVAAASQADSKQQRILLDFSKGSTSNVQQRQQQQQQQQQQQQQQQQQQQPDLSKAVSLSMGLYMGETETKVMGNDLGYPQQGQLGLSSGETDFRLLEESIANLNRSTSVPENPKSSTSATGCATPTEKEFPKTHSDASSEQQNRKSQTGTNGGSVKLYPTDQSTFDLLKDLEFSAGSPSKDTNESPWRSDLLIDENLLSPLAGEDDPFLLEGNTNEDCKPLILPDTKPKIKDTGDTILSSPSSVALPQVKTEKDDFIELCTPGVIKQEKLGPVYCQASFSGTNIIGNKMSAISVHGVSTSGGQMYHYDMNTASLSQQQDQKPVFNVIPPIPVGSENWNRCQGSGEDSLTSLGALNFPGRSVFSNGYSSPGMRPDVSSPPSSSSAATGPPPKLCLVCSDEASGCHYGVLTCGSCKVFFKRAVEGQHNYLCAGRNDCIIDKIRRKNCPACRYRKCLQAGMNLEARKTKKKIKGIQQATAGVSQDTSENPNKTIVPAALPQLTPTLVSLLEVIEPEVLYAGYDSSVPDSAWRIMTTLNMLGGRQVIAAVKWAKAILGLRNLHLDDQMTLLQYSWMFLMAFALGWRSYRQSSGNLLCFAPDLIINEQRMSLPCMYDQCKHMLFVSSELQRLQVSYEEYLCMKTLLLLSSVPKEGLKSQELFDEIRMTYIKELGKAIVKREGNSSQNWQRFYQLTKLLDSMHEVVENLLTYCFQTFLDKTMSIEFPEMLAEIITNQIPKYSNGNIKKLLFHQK
The assay can be described thus: ELISA of 8G11-C6 binding to partially purified glucocorticoid receptor and its inhibition. The following applies: ELISA (FIG. 13). Here is the method: FIG. 12. […] 200 microliters containing either 1.08 micrograms ( ) or 0.54 micrograms ( ) of a partially purified receptor preparation in 0.1 M NaHCO3 were added to the wells of the polystyrene plastic and incubated overnight at 4° C. […] See methods section for the methodology employed.
FIG. 13. […] 200 microliters containing 0.54 micrograms protein of a partially purified receptor preparation in 0.1 M NaHCO3 pH 9.3 was added to the wells of polystyrene plates. These were incubated for 2 hrs at 37° C. Washed 2× with PBS containing 0.02% Tween. […] See methods for the methodology employed. The inhibitors used were triamcinolone acetonide ( ), rabbit serum albumin ( ) and triamcinolone-RSA ( ).
In general terms: An ELISA detects its analyte on a solid surface through an enzyme-linked reagent.

The test system of assay [2] is anti-steroid Fab fragments. The assay can be described thus: ELISA of 8G11-C6 binding to anti-steroid Fab fragments and its inhibition. The settings on record: inhibitor pre-incubated (FIG. 9, 10). On the set-up: species or system rabbit. The procedure: FIG. 9 and 10. […] Controls with no inhibitor were included. […] Blanks with only PBS were included as well. The inhibitors used in FIG. 9 were triamcinolone acetonide ( ), triamcinolone-RSA ( ) and rabbit serum albumin ( ).
FIG. 11. […] The method used was similar to that described in the experimental procedure. […] 200λ of the incubation mixture was then added to microtiter wells previously coated with 10 ng anti-steroid Fab fragments and incubated for 2 hrs at 37° C.
The presence of anti-idiotypic antibodies in the hybridoma culture medium were assayed by a double antibody sandwich ELISA. […] After washing twice with 0.01M phosphate buffer - 0.14M NaCl, pH 7.4, containing 0.05% Tween (PBS-tween), the culture medium from the hybridomas was added and incubated at 37° C. for 2 hrs. The wells were washed three times with PBS-tween and 200 microliters of 1:3,000 dilution in PBS-tween of goat anti-mouse IgM-IgG horseradish peroxidase (Tago) was added. After incubating 1 hr at 37° C., the wells were washed three times with PBS-tween and 200 microliters substrate (7 mg o-phenylenediamine dichloride in 10 ml 0.1 M citrate-phosphate buffer, pH 4.8 containing 5 microliters of 30% H2 O2) was added. Depending on the intensity of the color, the reaction was stopped after 5-10 min by the addition of 50 microliters 8N H2 SO4 and the OD determined (Titretek) at 492 nm.

Assay [3] addresses anti-steroid antibodies. The assay can be described thus: Competitive inhibition of binding of [3H]TA to rabbit anti-steroid antibodies (serum, affinity purified, Fab fragments). Here is the method:
After incubating for 11/2 hrs at room temperature add 1 ml cold 5% charcoal/dextran (dil 1:40 with 0.1% gelatin in PBS). Let stand at 4° C. for 10 mins.

For assay [4], the target named is T2, glucocorticoid receptor (Rattus norvegicus, UniProt P06536).
T2 sequence (P06536 1-795): T1 sequence (P06536 1-795)
In words: biochemical.
Procedure: (§3) Incubate in a total volume of 500 microliters, for 2 hrs at 4° C., 20 mM HEPES buffer containing 50 mM NaCl, 1 mM EDTA, 10% glycerol 0.1 mM DTT pH 7.6, 10 nM [^3 H]TA and 200 microliters rat liver cytosol. Add 250 microliters 5% charcoal/dextran suspension and after 10 min centrifuge and determine the radioactivity in 200 λ aliquot.
(§4) The results tabulated in table I below represents the amount of unlabeled steroid that can displace 50% binding of 1×10^-8 M [^3 H]TA. Binding in the absence of competing steroid was taken as 100%.
(§5) Table I: Competitive inhibition of binding of [^3 H] triamcinolone to
(§6) glucocorticoid receptor included 100 ml of rat liver cytosol. 10^-8 M
(§7) [^3 H]TA and increasing concentrations of steroid in a total volume o
(§8) 200 ml. After incubating for 2 hrs at 4° C., 100 5%
(§9) charcoal/dextran was added. Let stand for 5 mins at 4° C. Make up
(§10) to 1 ml with PBS and after 5 mins centrifuge down charcoal. Decant
(§11) supernatant into scintillation vials. Add 10 ml hydrofluor and count.

Assay [5] deals with T3, Torpedo AChR (Tetronarce californica, UniProt P02710+P02714+P02718).
T3 construct: purified Torpedo AChR preparation; from tissue; host or cells: Torpedo electric organ (inferred, the usual source of purified Torpedo receptor)
T3 sequence (P02710 25-461): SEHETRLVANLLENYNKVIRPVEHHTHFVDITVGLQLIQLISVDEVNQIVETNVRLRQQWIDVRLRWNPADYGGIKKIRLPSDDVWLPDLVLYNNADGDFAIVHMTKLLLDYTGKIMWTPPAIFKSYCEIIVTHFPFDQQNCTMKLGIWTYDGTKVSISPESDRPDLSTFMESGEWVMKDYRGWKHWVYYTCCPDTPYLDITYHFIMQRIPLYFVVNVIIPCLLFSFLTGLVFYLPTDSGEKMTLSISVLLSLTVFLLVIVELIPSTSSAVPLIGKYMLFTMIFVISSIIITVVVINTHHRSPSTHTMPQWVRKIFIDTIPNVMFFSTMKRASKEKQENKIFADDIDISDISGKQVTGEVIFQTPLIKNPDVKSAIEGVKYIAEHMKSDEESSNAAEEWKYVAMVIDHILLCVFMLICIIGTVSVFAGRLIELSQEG
T3 sequence (P02712 25-493 partner): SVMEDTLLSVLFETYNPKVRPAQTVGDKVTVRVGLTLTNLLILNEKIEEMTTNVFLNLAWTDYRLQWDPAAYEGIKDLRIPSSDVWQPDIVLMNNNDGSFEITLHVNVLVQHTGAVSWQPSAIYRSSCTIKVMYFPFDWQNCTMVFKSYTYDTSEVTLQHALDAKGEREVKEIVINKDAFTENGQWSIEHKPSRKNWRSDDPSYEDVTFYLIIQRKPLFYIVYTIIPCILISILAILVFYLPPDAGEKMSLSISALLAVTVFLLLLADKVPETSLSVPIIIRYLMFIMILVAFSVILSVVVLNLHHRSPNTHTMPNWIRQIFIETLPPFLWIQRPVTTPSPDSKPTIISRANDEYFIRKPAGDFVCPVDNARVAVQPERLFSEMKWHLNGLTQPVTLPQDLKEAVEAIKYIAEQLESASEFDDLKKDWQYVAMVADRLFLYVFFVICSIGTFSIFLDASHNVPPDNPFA
T3 sequence (P02714 18-506): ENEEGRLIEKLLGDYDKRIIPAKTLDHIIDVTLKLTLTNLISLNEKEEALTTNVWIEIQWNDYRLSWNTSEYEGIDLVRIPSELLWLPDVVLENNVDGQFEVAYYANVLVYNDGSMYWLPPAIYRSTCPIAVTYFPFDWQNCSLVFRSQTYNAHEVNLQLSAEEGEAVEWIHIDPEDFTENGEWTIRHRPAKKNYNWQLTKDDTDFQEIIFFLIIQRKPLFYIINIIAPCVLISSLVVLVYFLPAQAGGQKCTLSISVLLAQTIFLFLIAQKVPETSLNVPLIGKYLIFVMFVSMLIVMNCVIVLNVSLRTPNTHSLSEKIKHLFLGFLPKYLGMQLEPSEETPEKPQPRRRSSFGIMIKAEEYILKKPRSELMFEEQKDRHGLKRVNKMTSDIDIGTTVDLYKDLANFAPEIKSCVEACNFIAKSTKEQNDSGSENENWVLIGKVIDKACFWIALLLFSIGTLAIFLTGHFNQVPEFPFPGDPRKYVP
T3 sequence (P02718 22-522): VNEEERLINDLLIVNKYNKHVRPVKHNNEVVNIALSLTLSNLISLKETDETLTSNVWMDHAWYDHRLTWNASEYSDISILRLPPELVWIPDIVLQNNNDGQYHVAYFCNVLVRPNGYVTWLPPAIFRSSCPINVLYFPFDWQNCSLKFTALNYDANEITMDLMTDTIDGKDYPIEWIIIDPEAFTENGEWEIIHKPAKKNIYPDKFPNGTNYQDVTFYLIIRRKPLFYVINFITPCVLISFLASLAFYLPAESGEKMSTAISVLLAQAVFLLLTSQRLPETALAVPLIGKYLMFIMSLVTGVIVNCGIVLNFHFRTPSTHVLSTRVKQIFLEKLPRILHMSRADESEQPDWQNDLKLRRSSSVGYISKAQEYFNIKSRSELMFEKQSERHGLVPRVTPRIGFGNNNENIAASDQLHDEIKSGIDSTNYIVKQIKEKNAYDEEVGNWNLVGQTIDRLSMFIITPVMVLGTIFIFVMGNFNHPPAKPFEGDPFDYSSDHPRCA
The assay can be described thus: Enzyme immunoassay of F8-D5 binding to Torpedo AChR and its inhibition. The procedure:
(§1) Wells of polystyrene plates (Corning) were then coated with 150 microliters of either 400 ng/ml purified rabbit anti-BisQ (1) in 0.1 M NaHCO3, pH 9.3, or […] purified Torpedo receptor in the same buffer. Coating was accomplished by incubating for 2 h at 37° C. After two washings with 0.01 M phosphate buffer:0.14 M NaCl, pH 7.2, containing 0.05% v/v Tween-20 (PBS-Tween), the wells were exposed to the various concentrations of F8-D5 in PBS-Tween. After incubation at 37° C. for 2h, the wells were washed three times with PBS-Tween and then filled with 200 microliters of 1:1,000 dilution in PBS-Tween of goat anti-mouse immunoglobulin labeled with horseradish -peroxidase (Sigma). After incubation at 37° C. for 1 h, the wells were washed three times with PBS-Tween. Peroxidase was assayed by incubation with o-phenylenediamine dihydrochloride (7 mg in 10 ml 0.1 M citrate-phosphate buffer, pH 4.8, containing 5 microliters of 30% H2 O2) for 10 min. The reaction was stopped with 50 microliters per well of 4 M H2 SO4 and the color read at 492 nm in a Multiskan Titertek apparatus. Values were corrected for a PBS blank which was never higher than 0.150. (The above conditions were not chosen for optimal sensitivity but for speed and convenience.)
(§2) To confirm that the same monoclonal antibody bound receptor and anti-BisQ, reciprocal inhibition experiments were carried. […]

For assay [6], the target named is rabbit anti-BisQ. The assay can be described thus: Enzyme immunoassay of F8-D5 binding to rabbit anti-BisQ and its inhibition. The settings on record: read-out: concentration giving 50% inhibition of binding of F8-D5 to rabbit anti-BisQ; stated as a similar concentration. Here is the method: as §1, §2
Assay [7] has as its target anti-steroid Fab fragments. In words: Scatchard analysis of tritiated steroid binding to Fab fragments of affinity purified anti-steroid antibodies. The arrangement: species or system rabbit. The settings on record: tritiated ligand, read-out: Kd for Fab fragments of the anti-steroid from Scatchard plots. The procedure: FIG. 5. Scatchard plot of the binding of [^3 H]triamcinolone acetonide to Fab fragments of affinity purified anti-steroid antibodies. Fab fragments (0.227 micrograms) were incubated with increasing concentrations of [^3 H]triamcinolone acetonide (0.4-62.5 nM) in the presence of 0.01M phosphate buffered saline pH 7.4 containing 0.1% gelatin in a total volume of 200 microliters. Total and non-specific binding (50 micromolar triamcinolone acetonide) were determined for each of the [^3 H]triamcinolone acetonide levels and all points were in duplicate. After incubating 1 hr at room temperature, add 1 ml cold 5% charcoal/dextran (diluted 1:40 in 0.01M PBS containing 0.1% gelatin) and let stand on ice for 10 min. Centrifuge down the charcoal/dextran, decant the supernatant into scintillation vials and determine the radioactivity.

For assay [8], the target named is T2, glucocorticoid receptor. In words: Competitive inhibition of binding of [3H]triamcinolone acetonide to glucocorticoid receptor in rat liver cytosol. The following applies: apparent Kd of the glucocorticoid receptor, competitive binding with [3H]TA as tracer (FIG. 6, Table I).
Procedure: as §3, §4, §5, §6, §7, §8, §9, §10, §11
Setting [9] is: affinity purified anti-steroid 1.3 micrograms, 1×10^-8 M [3H]TA, read-out: Affinity purified anti-steroid: amount of unlabeled steroid that can displace 50% binding of [3H]TA.
Setting [10] is: anti-steroid Fab fragments 0.18 micrograms, 1×10^-8 M [3H]TA, read-out: Rabbit serum 541 Fab fragments: amount of unlabeled steroid that can displace 50% binding of [3H]TA.
The mark [11] stands for this setting: unprocessed rabbit serum 540 dil 1:1000, 1×10^-8 M [3H]TA, read-out: Rabbit Serum 540 Unprocessed: amount of unlabeled steroid that can displace 50% binding of [3H]TA.
Setting [12] is: unprocessed rabbit serum 540 dil 1:1000, 1×10^-8 M [3H]TA.

Read-outs that look alike come from different tables or passages of the source.

In the case of `C[C@]12CC[C@@H]3c4ccc(O)cc4CC[C@H]3[C@@H]1CC[C@@H]2O` [estradiol-17β], in assay [1], the “effect on the binding of 8G11-C6 to partially purified glucocorticoid receptor” value was “no effect”. In addition, the “effect on the binding of 8G11-C6 to anti-steroid Fab fragments” value (shortened to “effect … to anti-steroid Fab fragments”) in assay [2] was “slight activation of binding”.

Regarding `C[C@]12CCC(=O)C=C1CC[C@@H]1[C@@H]2[C@@H](O)C[C@@]2(C)[C@H]1CC[C@]2(O)C(=O)CO` [Hydrocortisone], the IC50 is 100000 nM in assay [3] (setting [9]), 100000 nM in assay [3] (setting [10]) and 5000 nM in assay [3] (setting [11]).

On to `C[C@]12C=CC(=O)C=C1CC[C@H]1[C@@H]3C[C@@H](O)[C@](O)(C(=O)CO)[C@@]3(C)C[C@H](O)[C@@]12F` [Triamcinolone, 9-fluoro-11β, α16 , 17, 21-tetrahydroxypregna-1,4-diene-3, 20-dione], for which the IC50 in assay [4] was 5 nM; in assay [3] (setting [9]), 15 nM; in assay [3] (setting [10]), 15 nM; in assay [3] (setting [11]), 3.2 nM. The “effect … to anti-steroid Fab fragments” value in assay [2] is recorded as “slight activation of binding”.

For `C[N+](C)(C)Cc1cccc(/N=N/c2cccc(C[N+](C)(C)C)c2)c1` [BisQ, trans-3,3'-bis(α-trimethylammonium)azotoluene], the IC50 was 40000 nM in assay [5] and ~40000 nM in assay [6].

For the compound `C[C@]12C[C@H](O)[C@H]3[C@@H](CCC4=CC(=O)CC[C@@]43C)[C@@H]1CC[C@@H]2C(=O)CO` [Corticosterone], the IC50 in assay [3] (setting [9]) worked out at 100000 nM; in assay [3] (setting [10]), 100000 nM; in assay [3] (setting [11]) it was 6300 nM.

For the compound “rabbit serum albumin: carrier protein tested alone as inhibitor”, in assay [2], the “effect … to anti-steroid Fab fragments” value was “did not affect”.

`C[C@@H]1C[C@H]2[C@@H]3CCC4=CC(=O)C=C[C@]4(C)[C@@]3(F)[C@@H](O)C[C@]2(C)[C@@]1(O)C(=O)CO` [Dexamethasone]: the IC50 in assay [3] (setting [9]) is 620 nM; in assay [3] (setting [10]), 630 nM; in assay [3] (setting [11]) it was 120 nM. In addition, the Kd in assay [7] was found to be 150 nM.

For the compound `CC1(C)O[C@@H]2C[C@H]3[C@@H]4CCC5=CC(=O)C=C[C@]5(C)[C@@]4(F)[C@@H](O)C[C@]3(C)[C@]2(C(=O)CO)O1` [triamcinolone acetonide], the Kd in assay [8] stood at 5 nM; in assay [4] it was 15 nM; in assay [3] (competitive binding with [3H]TA as tracer (FIG. 6, Table I), read-out: apparent Kd of the anti-steroid in unprocessed rabbit serum), 3.2 nM. For the same compound, the “effect … to anti-steroid Fab fragments” value in assay [2] is “did not affect”.

Consider `C[C@]12CC[C@H]3[C@@H](CCC4=CC(=O)CC[C@@]43C)[C@@H]1CC[C@@H]2O` [Testosterone], for which, in assay [1], the “effect on the binding of 8G11-C6 to partially purified glucocorticoid receptor” value was “only a slight inhibitory effect”. Moreover, the “Affinity purified anti-steroid: amount of unlabeled steroid that can displace 50% binding of [3H]TA” value in assay [3] (affinity purified anti-steroid 1.3 micrograms, 1×10^-8 M [3H]TA) is “not inhibited”. Besides, the “Rabbit serum 541 Fab fragments: amount of unlabeled steroid that can displace 50% binding of [3H]TA” value in assay [3] (anti-steroid Fab fragments 0.18 micrograms, 1×10^-8 M [3H]TA) was “not inhibited”. Moreover, the “Rabbit Serum 540 Unprocessed: amount of unlabeled steroid that can displace 50% binding of [3H]TA” value in assay [3] (setting [12]) is “not inhibited”. For the same compound, in assay [2], the “effect … to anti-steroid Fab fragments” value is listed as “slight activation of binding”.

As for `CC(=O)[C@H]1CC[C@H]2[C@@H]3CCC4=CC(=O)CC[C@]4(C)[C@H]3CC[C@]12C` [Progesterone], the IC50 in assay [3] (setting [9]), in assay [3] (setting [10]) and in assay [3] (setting [11]) was 100000 nM throughout.

Regarding `C[C@]12CCC(=O)C[C@@H]1CC[C@@H]1[C@@H]2CC[C@]2(C)[C@@H](O)CC[C@@H]12` [Dihydrotestosterone], the “Rabbit Serum 540 Unprocessed: amount of unlabeled steroid that can displace 50% binding of [3H]TA” value in assay [3] (setting [12]) was “no effect”.
